Values after ≈ are worked out from the molar mass of the structure shown.
Legend:
K562 = assay: Growth inhibition of sensitive and drug-resistant cell lines (IC50), K562; assay type: cell-based; conditions: Homo sapiens; K562 cells
Description: (§1) The human lung cancer cell H1299 and H446, glioma cell U251 and U87MG, and human hepatic cellular cancer Bel-7402 cell in logarithmic growth phase were digested with pancreatic enzyme, and then suspended into DMEM or RPMI1640 containing 10% fetal bovine serum. The leukemic cells Kasumi-1 need no digestion, and were suspended into RPMI1640 containing 10% fetal bovine serum directly after centrifugalization. The cell density was adjusted to 1×10^4 cells/ml through cell counting, and the cell suspensions were seeded into a 96-well plate respectively, 100 μl/well, totally 6 groups of cells. The adherent cells were cultured overnight, the suspended cells were added different concentration gradients of dimeric phthalide compounds (S1-S6) directly, n=6 for each concentration of a single agent. The final volume was 200 ul, and the balance was supplemented with the culture medium. The plate was then incubated for 68 hours in 37° C., saturated humidity, 5% CO2 cell incubator. The medium was aspirated and 72 μl/well fresh culture medium was added. 8 μl […] (CCK-8) was added into each well and cultured for 2 hours. The absorbance was measured at 450 nm. The results were calculated as the 50% inhibiting drug concentration, i.e. IC50, using Sigmoidal simulation function by software Origin 7.0.
(§2) The cancer cells (various cell lines as shown in table 1 or FIG. 3) were seeded 1×10^3 cells per well into a 96-well plate. The suspended cells were added different concentration of dimeric phthalide compounds (S1-S6) directly, and the adherent cells were cultured overnight and added different concentration of dimeric phthalide compounds (S1-S6). The different concentration of dimeric phthalide compounds were divided into 10 groups: 0, 0.1, 0.5, 1, 5, 10, 20, 40, 80, 160 μg/ml, n=6 for each concentration.
(§3) According to the method described in Example 2, […] was detected and IC50 was calculated. The experiment was repeated for 3 times.
(§4) The growth inhibition effects of dimers of S1-S6 on its sensitive cell lines as well as the drug-resistant sub-strains (IC50 (μg/ml)) were shown in table 1 and FIG. 3.

K562/Adr = assay: Growth inhibition of sensitive and drug-resistant cell lines (IC50), K562/Adr; assay type: cell-based; conditions: Homo sapiens; K562/Adr drug-resistant cells
Description: (§5) HL-60/ADR, MCF-7/ADR, K562/ADR, Bel-7402/5-FU, KBV200, SMMC-7721/Adr were respectively chemotherapeutics Adriamycin (ADR), 5-Fluorouracil (5-FU) or vincristine (VCR) drug-resistant sub-stains of HL-60, MCF-7, K562, Bel-7402, KB, SMMC-7721 cells (all from Chinese Academy of Medical Sciences). NB4-R2 was all trans-retinoic acid (ATRA) drug-resistant sub-stain (from Pathophysiology Research Department of Shanghai JiaoTong University). The main drug-resistance mechanism of K562/ADR was high expression of P-glycoprotein (P-gp), along with increased expression of Bcl-2. In addition to high expression of P-gp, the drug-resistance mechanism of MCF-7/ADR also related to the high expression of Breast Cancer Resistant Protein (BCRP). The main drug-resistance mechanism of HL-60/ADR was high expression of Multidrug Resistance Protein 1 (MRP1), along with high expression of Bcl-2, Bcl-xL. […] The main drug-resistance mechanism of KBV200 was high expression of P-gp and its increased activity. The drug-resistance mechanism of NB4-R2 on ATRA was mutation in the RAR gene locus.
as §1, §2, §3, §4

KB [1] = assay: Growth inhibition of sensitive and drug-resistant cell lines (IC50), KB; assay type: cell-based; conditions: Homo sapiens; KB cells, Table 1
Description: (§6) In the following Examples, the cell lines used were H1299, H446 (human lung cancer cell line), KB (human oral cavity carcinoma cell line), NB4, HL-60 (human leukemic cell line), U251 ? U87MG (human glioblastoma cell line), MCF-7 (human breast carcinoma cell line), Bel-7402 and SMMC7721 (human hepatic cellular cancer cell line), SW620 (human colon carcinoma cell line), HDF (human dermis fibroblast), HUVEC (human umbilical vein endothelial cell line) and Kasumi-1 (human acute myeloid leukaemia cell line), all from American Type Culture Collection (ATCC).
as §1, §2, §3, §4

KBv200 = assay: Growth inhibition of sensitive and drug-resistant cell lines (IC50), KBv200; assay type: cell-based; conditions: Homo sapiens; KBv200 drug-resistant cells
Description: as §5, §1, §2, §3, §4

MCF-7 = assay: Growth inhibition of sensitive and drug-resistant cell lines (IC50), MCF-7; assay type: cell-based; conditions: Homo sapiens, MCF7; MCF-7 cells
Description: as §6, §1, §2, §3, §4

MCF-7/Adr = assay: Growth inhibition of sensitive and drug-resistant cell lines (IC50), MCF-7/Adr; assay type: cell-based; conditions: Homo sapiens, NCI/ADR-RES; MCF-7/Adr drug-resistant cells
Description: as §5, §1, §2, §3, §4

Bel-7402 [2] = assay: Growth inhibition of sensitive and drug-resistant cell lines (IC50), Bel-7402; assay type: cell-based; conditions: Homo sapiens; Bel-7402 cells, Table 1
Description: as §6, §1, §2, §3, §4

Bel-7402/5-Fu = assay: Growth inhibition of sensitive and drug-resistant cell lines (IC50), Bel-7402/5-Fu; assay type: cell-based; conditions: Homo sapiens, Bel7402/5-FU; Bel-7402/5-Fu drug-resistant cells
Description: as §5, §1, §2, §3, §4

SMMC-7721 = assay: Growth inhibition of sensitive and drug-resistant cell lines (IC50), SMMC-7721; assay type: cell-based; conditions: Homo sapiens; SMMC-7721 cells
Description: as §6, §1, §2, §3, §4

SMMC-7721/Adr = assay: Growth inhibition of sensitive and drug-resistant cell lines (IC50), SMMC-7721/Adr; assay type: cell-based; conditions: Homo sapiens; SMMC-7721/Adr drug-resistant cells
Description: as §5, §1, §2, §3, §4

HUVEC = assay: Vascular endothelial cell inhibition assay (CCK-8), HUVEC; assay type: cell-based; conditions: Homo sapiens, 72 h
Description: (§7) 2×10^3 cells were seeded into a 96-well plate and cultured for 24 h. S1-S6 of different concentrations (0, 0.01, 0.1, 0.5, 1, 2.5, 5, 10, 20, 40, 80, 160 μg/ml, respectively) were added and incubated for 72 h, n=6 for each concentration. The inhibition of cell proliferation was detected by CCK-8 assay, the results were calculated as IC50, as describe in Example 3.

HDF = assay: Vascular endothelial cell inhibition assay (CCK-8), HDF; assay type: cell-based; conditions: Homo sapiens, 72 h
Description: as §7

KB [3] = assay: Vascular endothelial cell inhibition assay (CCK-8), KB; assay type: cell-based; conditions: Homo sapiens, 72 h, CCK-8, Table 2
Description: as §7

Bel-7402 [4] = assay: Vascular endothelial cell inhibition assay (CCK-8), Bel-7402; assay type: cell-based; conditions: Homo sapiens, 72 h, CCK-8, Table 2
Description: as §7

[5] = test system: secretion of VEGF in H1299 cell; assay: VEGF in supernatant of tumor cell H1299 culture (VEGF-ELISA); assay type: cell-based, human; conditions: H1299, compound 5 μg/ml, 24 h; for inhibition at 5 µg/mL: Homo sapiens, NCI-H1299, read-out: Inhibition rate of VEGF secretion
Description: Assay of vascular endothelial cell growth factor (VEGF) in supernatant of tumor cell H1299 culture. The cell was seeded into a 24-well plate (n=3 for each sample). H1299 cell was treated with S1-S6 respectively and cultured for 24 h. The culture supernatants from each group were collected and operated according to the instruction of VEGF-ELISA kit (JIN MEI Corporation). The samples were added, incubated, washed and detected at 450 nm for OD values of each sample. The standard curve was obtained by using different dose of VEGF standards and the secretory volume of VEGF in the supernatant was calculated.

[6] = test system: H1299, H446, U251, U87MG, Bel-7402 and Kasumi-1 cells; assay: Inhibition effects on proliferation (CCK-8), various human cancer cells; assay type: cell-based; conditions: FIG. 2, 68 h
Description: as §1

[7] = test system: drug-resistant cells of different mechanisms and sensitive cells; assay: Overcome drug resistance: efficacy on drug-resistant cells compared with sensitive cells; assay type: cell-based, human; conditions: table 1 and FIG. 3
Description: as §2, §3

HL-60, H1299, U251 cells = assay: Inducing cell death (Rh123/PI flow cytometry); assay type: cell-based, human; conditions: 48 h, FIG. 5
Description: S1-S6 of different concentrations (as shown in FIG. 5) were added into HL-60, H1299, U251 cells under good growing conditions. The cells were cultured for 48 h, and collected. The cells were incubated with rhodamine 123 (Rh123) of the final concentration of 10 μg/ml for 20 min at 37° C., and then washed with pre-cooled PBS twice. The cells were suspended into PBS, and PI of final concentration of 25 μg/ml was added. After incubated in the dark at room temperature for 15 min, mitochondria membrane potential and PI positive cells were detected by flow cytometry, the death rate was calculated as the rate of PI positive cells.

[8] = test system: U87MG, H1299 and HL-60 heterograft tumors; assay: Inhibition of the growth of nude mouse heterograft tumors; assay type: in vivo, Balb/c male nude mice; conditions: intraperitoneal; S4 25 mg/kg, S6 30 mg/kg, S1 32 mg/kg, BP 250 mg/kg; 4 weeks; FIG. 9
Description: Experimental grouping: Balb/c male nude mice were used, each weighted 18-22 g, and three assays were performed. The mice were seeded with U87MG, H1299 and HL-60 respectively. The animals were divided into three groups for each experiment, one as control, one was administered with the dimeric phthalide compounds, and one was administered with monomers of phthalide compound, 6 animals for each group.
For the group which was administered with monomers of phthalide compound, we used n-butylidenephthalide (BP) (Sigma) as active ingredient for tumor suppression, the compound had the structure as follows:
Experimental Process The H1299, HL-60 or U87MG cells growing in logarithmic phase were used. […] When the tumors had gown into 0.1-0.5 cm^3 (about 7-10 days), the animals were intraperitoneal injected with the dimeric phthalide compound S4 (25 mg/kg), S6 (30 mg/kg), S1 (32 mg/kg), each 200 μl; for the group of monomers of phthalide compound, the mice were intraperitoneal injected with n-butylidenephthalide (250 mg/kg); the control group was administered with equal volume of vehicle. The animals were sacrificed after 4 weeks, and the subcutaneous tumors were separated. Photographs were taken (FIG. 9A) and the tumors were weighted (FIG. 9B).

Row | IC50 (K562) [µg/mL] | IC50 (K562/Adr) [µg/mL] | IC50 (KB [1]) [µg/mL] | IC50 (MCF-7) [µg/mL] | IC50 (MCF-7/Adr) [µg/mL] | IC50 (Bel-7402 [2]) [µg/mL] | IC50 (Bel-7402/5-Fu) [µg/mL] | IC50 (SMMC-7721) [µg/mL] | IC50 (SMMC-7721/Adr) [µg/mL] | IC50 (KB [3]) [µg/mL] | IC50 (Bel-7402 [4]) [µg/mL] | SMILES | IC50 (KBv200) [µg/mL] | IC50 (HUVEC) [µg/mL] | IC50 (HDF) [µg/mL] | Supernatant VEGF [5] [ng/ml/10^6 cells] | inhibition at 5 µg/mL [5] [%] | inhibition effect on proliferation of various human cancer cells [6] | efficacy on drug-resistant cells compared with sensitive cells [7] | inducing decrease of cell mitochondria membrane potential and cell death (HL-60, H1299, U251 cells) | tumor inhibition effect [8]
1 | 11.5 ± 0.831 (≈ 30.3 µM) | 12.4 ± 1.01 (≈ 32.5 µM) | 15.5 ± 3.22 (≈ 40.8 µM) | 18.4 ± 2.8 (≈ 48.5 µM) | 20.3 ± 2.12 (≈ 53.4 µM) | 16.4 ± 1.94 (≈ 43.2 µM) | 17.6 ± 3.68 (≈ 46.1 µM) | 19.4 ± 3.12 (≈ 51 µM) | 22.7 ± 2.55 (≈ 59.6 µM) | 21.4 (≈ 56.2 µM) | 30.4 (≈ 79.9 µM) | CCC/C=C1\OC(=O)C2=C1CCC1C2[C@@]23CC[C@@H]1C=C2C(=O)O/C3=C\CCC (stereo partly drawn) [S4] | 17.4 ± 2.03 (≈ 45.9 µM) | 4.14 (≈ 10.9 µM) | 82.2 (≈ 216 µM) | 234.00 ± 34.03 | 37.3 | best inhibition effects on most of the cancer cells | the best effect | best effect of inducing cell death | significant tumor inhibition effects
2 | 18.4 ± 0.87 (≈ 48.2 µM) | 18.3 ± 0.762 (≈ 47.9 µM) | 16.4 ± 2.05 (≈ 42.9 µM) | 28.5 ± 1.91 (≈ 74.6 µM) | 29.2 ± 2.14 (≈ 76.4 µM) | 30.2 ± 2.17 (≈ 79 µM) | 28.1 ± 4.02 (≈ 73.4 µM) | 36 ± 3.92 (≈ 94.2 µM) | 35.2 ± 2.33 (≈ 92.1 µM) | 36 (≈ 94.1 µM) | 29.7 (≈ 77.6 µM) | CCC/C=C1\OC(=O)C2=CC3CC[C@]21C1C2=C(CC[C@@H]31)C(CCCC)OC2=O (stereo partly drawn) [S5] | 19.8 ± 1.05 (≈ 51.8 µM) | 4.04 (≈ 10.6 µM) | 75.8 (≈ 198 µM) | 236.32 ± 24.02 | 36.7 |  |  |  | 
3 | 10.3 ± 0.597 (≈ 26.2 µM) | 11.8 ± 0.995 (≈ 29.9 µM) | 13 ± 2.5 (≈ 32.9 µM) | 22.4 ± 2.03 (≈ 56.9 µM) | 24.5 ± 2.09 (≈ 62.1 µM) | 22.6 ± 3.01 (≈ 57.3 µM) | 24 ± 2.66 (≈ 60.8 µM) | 24 ± 1.87 (≈ 60.8 µM) | 23 ± 2.76 (≈ 58.2 µM) | 26.3 (≈ 66.6 µM) | 30 (≈ 76.1 µM) | CCC/C=C1\OC(=O)C2=C1CCC1C2C2(OC(=O)C3=C2CCC=C3)C1(C)CCC (stereo not drawn) [S6] | 12.2 ± 2.15 (≈ 31 µM) | 4.27 (≈ 10.8 µM) | 136 (≈ 344 µM) | 237.25 ± 22.38 | 36.4 |  | the best effect |  | significant tumor inhibition effects

From patent US8247444B2, “Anti-tumor effect of dimeric phthalide compound” (priority 2007, dated 2012)
